The text below walks through data of paper PMC11819963, “In Vitro CO-Releasing and Antioxidant Properties of Sulfonamide-Based CAI-CORMs in a H2O2-Stimulated Human Achilles Tendon-Derived Cell Model” (Molecules, 2025).

Like-named read-outs stand apart in the source and are kept apart here.

Data set [1] concerns the target T1, hCA II (Homo sapiens, UniProt P00918). Kind of data set: stopped-flow CO2 hydrase assay, hCA II. The format is biochemical. As to conditions: mean from three assays, errors ±5–10%. On the procedure: (§1) The CO2 concentrations ranged from 1.7 to 17 mM for the determination of the kinetic parameters and inhibition constants. […] The uncatalysed rates were determined in the same manner and subtracted from the total observed rates. […] The inhibition constants were obtained by non-linear least-squares methods using PRISM 3 and the Cheng–Prusoff equation and represent the mean from at least three different determinations.

Data set [2] addresses T2, hCA IX (Homo sapiens, UniProt Q16790). Description: stopped-flow CO2 hydrase assay, hCA IX. The class given is biochemical. As to conditions: mean from three assays, errors ±5–10%. On the procedure:
as §1

In data set [3] the target is T3, hCA XII (Homo sapiens, UniProt O43570). Kind of data set: stopped-flow CO2 hydrase assay, hCA XII. As to conditions: mean from three assays, errors ±5–10%. The format is biochemical. On the procedure: as §1
In data set [4] the test system is reduced myoglobin (deoxy-Mb). Description: myoglobin carbonylation assay (CO release). Conditions: for CO-release profile (MbCO formed over time): 1:1 and 1:6 CORM:Mb, up to 300 min, comparison within series; for MbCO formed: after 210 min of incubation, 1:1 CORM–Mb ratio (about 20 μM CORM). Set-up: species or system horse. On the procedure:
To determine the CO-releasing properties of the designed compounds, the myoglobin carbonylation assay was employed, with some deviations from the standard protocol, as previously reported. The analysed compounds were incubated with reduced myoglobin (deoxy-Mb), and spectra were recorded every 30 min up to 300 min. The release of CO was assessed by evaluating the formation of carbonylated myoglobin (Mb-CO) over time (Figure 3). […] The releasing properties of the compounds were also expressed as CO units released after 300 min of incubation with Mb, as reported in Figure S1 (Supplementary Information File).
All the employed reagents were of analytical grade and acquired from Merck (Milan, Italy). Gaseous CO was obtained from Rivoira (Milan, Italy). A Shimadzu UV1900 UV-Vis Spectrophotometer from 275 to 700 nm at the scanning rate of 200 nm/min was used to record UV-Vis absorption spectra in a disposable plastic cuvette (path length 0.44 cm). The second derivative spectra were generated with the Origin Lab software, and the Savitzky–Golay method was applied using 25 data points for the differentiation process. Neither an increase nor a decrease in the number of points caused changes in the wavelength or in the bandwidth. Lyophilised horse heart Mb was dissolved in phosphate-buffered saline flushed with N2 (PBS, 0.01 M, pH 7.4 to a 20–22 μM final concentration). Two millilitres of this freshly prepared stock solution were placed in a cuvette to record the UV-Vis absorption spectrum of met-Mb. Next, the solutions were divided into two halves: 10 μL of sodium dithionite (30 mg/mL) was added to the first half (reference), and the UV–Vis spectrum of deoxy-Mb was registered. After that, the solution was flushed with CO gas, and the Mb-CO spectrum was acquired. Sodium dithionite was added to the second half (sample), and a spectrum was recorded. Afterwards, a CORM DMSO solution was added to a final CORM concentration of 1.67 μM, 3.33 μM or 20 μM and gently mixed. The solution was covered with 300 μL of light mineral oil to avoid CO escaping and oxygenation of Mb, and the absorption spectrum was recorded at t = 0. Spectra were acquired every 30 min for 300 min, keeping the sample at 37 °C. When necessary, a freshly prepared sodium dithionite solution was added. After 300 min, the total Mb concentration at the end of the assay was determined by flushing the sample with CO gas. Mb-CO concentration at each time point was determined, as previously reported. Each experiment was replicated three times, and the data were expressed as mean ± SEM.

Data set [5] deals with Human Achilles tendon-derived tenocytes. Kind of data set: cell metabolic activity (MTT test), basal conditions. As to conditions: for cell metabolic activity (MTT): 6.25–50 µM, vs untreated control. The format is cell-based.
Description: (§2) Human Achilles tendon-derived tenocytes (#TEN-F) were purchased by ZenBio Inc. (Durham, NC, USA) and maintained in complete alpha-MEM (EuroClone, Milan, Italy) supplemented with 10% of heat-inactivated FBS (Gibco, Thermo Fisher Scientific, Waltham, MA, USA) and 1% penicillin/streptomycin (EuroClone, Milan, Italy) at 37 °C and 5% CO2 and used from passage 3 up to passage 6.
(§3) Cells were seeded in 96-well plates (0.5 × 10^4/well) or 6-well plates (0.5 × 10^5/well) (ThermoFisher Scientific, Waltham, MA, USA) and left to adhere overnight at 37 °C and 5% CO2. For cell metabolic activity experiments (MTT test), tenocytes were treated with increasing concentrations of compounds (range 0–50 µM) for 24 and 48 h. Compounds were dissolved in DMSO to obtain a 200 mM stock solution, and they were afterwards diluted in complete alpha-MEM (DMSO final concentration = 0.1%) for further analyses. In a second set of MTT experiments, tenocytes were pre-incubated with 100 µM H2O2 for 3 h. After that, the pre-incubation medium was discarded and replaced with a fresh one containing the proper compound at increasing concentrations for 24 and 48 h. At the established time points, samples were processed for further analyses.
(§4) Tenocytes were seeded in 96 well tissue culture-treated plates (Falcon®, Corning Incorporated, Brooklyn, NY, USA) at 0.5 × 10^4 cells/well. Untreated cells (0 µM) were set as control (100% of cell metabolic activity). At the established time points, the exposure media were replaced by fresh medium containing 3-(4,5-dimethylthiazol-2-yl)-2,5-diphenyltetrazolium bromide (MTT) 0.5 mg/mL (Merck, Darmstadt, Germany) and processed as elsewhere reported [18]. The optical density in each well was measured using a spectrophotometer (Thermo Fisher Scientific, Waltham, MA, USA) at a wavelength of 540 nm. Each experiment was performed three times in triplicates per experimental condition (n = 9).
In data set [6] the target is hCA I (Homo sapiens, UniProt P00915). Conditions: cited from earlier work.
Data set [7] concerns the target T1, hCA II. Details: method as in earlier work. As to conditions: alkyne precursors marked a in Table S1; cited from earlier work.
Data set [8] deals with T2, hCA IX. Set-up: method as in earlier work. Conditions: alkyne precursors marked a in Table S1; cited from earlier work.
Data set [9] concerns the target T3, hCA XII. Details: method as in earlier work. Conditions: alkyne precursors marked a in Table S1; cited from earlier work.
In data set [10] the test system is H2O2-stimulated human Achilles tendon-derived tenocytes. Description: cell metabolic activity (MTT test), pre-incubation with H2O2. The class given is cell-based. As to conditions: 6.25–50 µM, after H2O2 100 µM for 3 h. On the technique in general: Formazan colour is commonly taken as a measure of viable cells.
Description: as §2, §3, §4
Data set [11] shares this test system. Kind of data set: collagen type I secretion (ELISA). The format is cell-based. As to conditions: 48 h, after H2O2 100 µM for 3 h, compared to untreated cells, normalised on MTT. On the procedure:
Compound A and acetazolamide were administered as reference compounds.
Amounts of collagen type I secreted in supernatants harvested from 96 well plates were detected by a human collagen type 1 ELISA kit (Cosmo Bio Co., Ltd., Tokyo, Japan; cat. no. ACE-EC1-E105-EX). Samples were pipetted into suitably coated wells as described elsewhere. Each ELISA test was performed three times in duplicates per experimental condition (n = 6). The concentration of collagen type I (µg/mL) was calculated using a standard curve generated with a specific standard provided by the manufacturer by means of the Prism 5.0 software (GraphPad, San Diego, CA, USA).

Setting [12] is: stopped-flow CO2 hydrase assay, cells marked a.

Chain of hCA I (P00915 whole entry): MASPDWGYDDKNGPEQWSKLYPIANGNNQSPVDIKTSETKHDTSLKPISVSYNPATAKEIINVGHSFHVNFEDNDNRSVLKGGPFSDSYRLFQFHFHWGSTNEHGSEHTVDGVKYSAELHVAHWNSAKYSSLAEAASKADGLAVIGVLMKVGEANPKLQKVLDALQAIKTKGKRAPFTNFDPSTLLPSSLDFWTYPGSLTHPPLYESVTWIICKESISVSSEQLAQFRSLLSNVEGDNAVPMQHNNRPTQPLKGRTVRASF
T3 sequence (O43570 25-354): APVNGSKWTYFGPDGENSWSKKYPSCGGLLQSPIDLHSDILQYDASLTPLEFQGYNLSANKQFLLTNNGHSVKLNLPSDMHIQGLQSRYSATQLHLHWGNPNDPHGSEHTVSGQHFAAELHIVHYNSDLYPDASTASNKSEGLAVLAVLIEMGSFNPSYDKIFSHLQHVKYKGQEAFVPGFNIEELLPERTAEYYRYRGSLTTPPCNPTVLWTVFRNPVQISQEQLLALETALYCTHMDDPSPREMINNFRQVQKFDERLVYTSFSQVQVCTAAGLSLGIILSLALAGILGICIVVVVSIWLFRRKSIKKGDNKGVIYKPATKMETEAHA

The Ki is a measure of affinity in units of concentration, obtained from inhibition or displacement. Take `C#CCOc1ccc(S(N)(=O)=O)cc1.[C-]#[O+].[C-]#[O+].[C-]#[O+].[C-]#[O+].[C-]#[O+].[C-]#[O+].[Co].[Co]` [1b, 4-(Prop-2′-ynyloxy)benzenesulfonamide hexacarbonyldicobalt]: the Ki was 40.9 nM in [1], 5.4 nM in data set [2], 0.9 nM in data set [3] and 1340 nM in data set [6] (setting [12]). Further, in [4], the “CO-release profile (MbCO formed over time)” value is reported as “the most efficient”. In data set [4], the MbCO formed is 6.39 µM. The “cell metabolic activity (MTT)” value in data set [5] (24 h exposure) is “significantly increase cell metabolic activity”. Moreover, the “concentration at which cytotoxicity is seen (MTT)” value in data set [5] (48 h exposure) is listed as at least 25 µM.
As for `C#CCN(CC#C)c1ccc(S(N)(=O)=O)cc1` [C, 4-(diprop-2′-ynylamino)benzenesulfonamide], the inhibition constant (Ki) in data set [6] (alkyne precursors marked a in Table S1) is 6400 nM; in data set [7] it was 1780 nM; in data set [8], 9 nM; in data set [9], 4.9 nM.
As for `C#CCNc1ccc(S(N)(=O)=O)cc1.[C-]#[O+].[C-]#[O+].[C-]#[O+].[C-]#[O+].[C-]#[O+].[C-]#[O+].[Co].[Co]` [1a, 4-(prop-2-ynylamino)benzenesulfonamide hexacarbonyldicobalt], the Ki in [1] was 215 nM; in data set [6] (setting [12]), 901 nM. Besides, the “KI hCA IX” value in [2] is listed as “ineffective”. Moreover, the “CO-release profile (MbCO formed over time)” value in [4] is “the fastest and most efficient releaser among the series”. Moreover, in data set [4], the MbCO formed came out at 9.05 µM. Moreover, in data set [4] (after 300 min of incubation with Mb, 1:6 CORM:Mb ratio (3.33 μM CORM), 37 °C), the CO units released is on record as 1.6 CO units. For the same compound, the figures for the “cell metabolic activity (MTT)” value in [5] (24 h exposure) and in data set [5] (48 h exposure) were “significantly increase cell metabolic activity” and “well increases cell metabolic activity at the lower concentrations”, respectively. Moreover, the “cytotoxicity (MTT)” value in [10] (24 h exposure) is “cytotoxic at the highest concentrations used”; in data set [10] (48 h exposure) it was “reveal cytotoxicity at the highest concentrations”. In [11], the “collagen type I secretion” value is “dramatically increases its secretion almost three times”.
